Results from ChEMBL document CHEMBL5120831, “Pep5-based antitumor peptides containing multifunctional fragments with enhanced activity and synergistic effect” (Eur J Med Chem, 2022).
One block for each compound: values may come before it. Activity calls are given as the source filed them. The rule behind the calls is not given here. Numbered stars: 1 amine (or outer) side, 2 acyl side, 3 side chain; on linkers, the order of the positions; unused ones are H or OH. Bridge positions count the residues as written; N and C are the ends. Square brackets hold non-standard residues; d marks the D form. Peptide text beside a SMILES is read from it. I, II: the chains in the order shown. X1 = O=C([C@H](Cc1c[nH]c2ccccc12)N(c1ccc([N+](=O)[O-])c2nonc12)[*:1])[*:2]

Experiments:
HepG2 [1] = test: Cytotoxicity against human HepG2 cells assessed as reduction in cell viability measured after 24 hrs by CCK-8 assay; assay type: functional, cell-based; conditions: HepG2, 24 h
[2] = Cytotoxicity against human L02 cells assessed as reduction in cell viability measured after 24 hrs by CCK-8 assay; assay type: toxicity, cell-based
A549 [3] = test: Cytotoxicity against human A549 cells assessed as reduction in cell viability measured after 24 hrs by CCK-8 assay; assay type: functional, cell-based; conditions: A549, 24 h
[4] = Cytotoxicity against human BEAS-2B cells assessed as reduction in cell viability measured after 24 hrs by CCK-8 assay; assay type: toxicity, cell-based
HepG2 [5] = test: Induction of apoptosis in human HepG2 cells assessed as reduction in viable cells at 15 uM measured after 24 hrs by Annexin V-FITC/propidium iodide staining based flow cytometry; assay type: functional, cell-based
A549 [6] = test: Induction of apoptosis in human A549 cells assessed as reduction in viable cells at 15 uM measured after 24 hrs by Annexin V-FITC/propidium iodide staining based flow cytometry; assay type: functional, cell-based
L02 = test: Induction of apoptosis in human L02 cells assessed as reduction in viable cells at 15 uM measured after 24 hrs by Annexin V-FITC/propidium iodide staining based flow cytometry; assay type: toxicity, cell-based; conditions: l02, 24 h
BEAS-2B = test: Induction of apoptosis in human BEAS-2B cells assessed as reduction in viable cells at 15 uM measured after 24 hrs by Annexin V-FITC/propidium iodide staining based flow cytometry; assay type: toxicity, cell-based
A549 [7] = test: Induction of cell membrane disruption in human A549 cells assessed as increase in LDH release at 15 uM measured after 1 hr by LDH releasing reagent based assay
HepG2 [8] = test: Induction of cell membrane disruption in human HepG2 cells assessed as increase in LDH release at 15 uM measured after 1 hr by LDH releasing reagent based assay
[9] = Drug uptake in human HepG2 cells at 15 uM measured after 1 hr by Hoechst 33258 staining based confocal laser scanning microscopy; assay type: ADME, cell-based; conditions: hepg2, 1 h
[10] = Drug uptake in human A549 cells at 15 uM measured after 1 hr by Hoechst 33258 staining based confocal laser scanning microscopy; assay type: ADME, cell-based; conditions: a549, 1 h
[11] = Drug uptake in human L02 cells at 15 uM measured after 1 hr by Hoechst 33258 staining based confocal laser scanning microscopy; assay type: ADME, cell-based; conditions: l02, 1 h
[12] = Drug uptake in human BEAS-2B cells at 15 uM measured after 1 hr by Hoechst 33258 staining based confocal laser scanning microscopy; assay type: ADME, cell-based
[13] = Drug uptake in human HepG2 cells at 15 uM measured after 1 hr by Hoechst 33258 staining based flow cyotmetry; assay type: ADME, cell-based; conditions: hepg2, 1 h
[14] = Drug uptake in human A549 cells at 15 uM measured after 1 hr by Hoechst 33258 staining based flow cyotmetry; assay type: ADME, cell-based; conditions: a549, 1 h
[15] = Drug uptake in human L02 cells at 15 uM measured after 1 hr by Hoechst 33258 staining based flow cyotmetry; assay type: ADME, cell-based; conditions: l02, 1 h
[16] = Drug uptake in human BEAS-2B cells at 15 uM measured after 1 hr by Hoechst 33258 staining based flow cyotmetry; assay type: ADME, cell-based
[17] = Drug uptake in human HepG2 cells membrane at 15 uM measured after 15 mins by Hoechst 33258/Lyso-Tracker Red staining based flow cytometry; assay type: ADME, cell membranes, Cell membrane; conditions: hepg2, 0.25 h
[18] = Drug uptake in endosome of human HepG2 cells at 15 uM measured after 30 mins by Hoechst 33258/Lyso-Tracker Red staining based flow cytometry; assay type: ADME; conditions: hepg2, 0.5 h
[19] = Drug uptake in cytoplasm of human HepG2 cells at 15 uM measured after 60 mins by Hoechst 33258/Lyso-Tracker Red staining based flow cytometry; assay type: ADME, subcellular; conditions: hepg2, 1 h
[20] = Drug uptake in human HepG2 cells at 15 uM measured after 60 to 120 mins by Hoechst 33258/Lyso-Tracker Red staining based flow cytometry; assay type: ADME, cell-based; conditions: hepg2, 15 µM, time 60-120 min

Compound: CC[C@H](C)[C@H](NC(=O)[C@H](CCCCN)NC(=O)[C@H](CC(N)=O)NC(=O)[C@H](CCCNC(=N)N)NC(=O)[C@H](Cc1ccccc1)NC(=O)[C@H](CCCCN)NC(=O)[C@H](CCCNC(=N)N)NC(=O)[C@H](CC(C)C)NC(=O)[C@H](CCCNC(=N)N)NC(=O)[C@H](CCCCNC(=O)[C@H](CCCCN)NC(=O)[C@H](CCC(=O)O)NC(=O)[C@H](CCCCN)NC(=O)[C@@H](NC(=O)[C@H](CCCCN)NC(=O)[C@H](CC(N)=O)NC(=O)[C@H](CCCNC(=N)N)NC(=O)[C@H](Cc1ccccc1)NC(=O)[C@H](CCCCN)NC(=O)[C@H](CCCNC(=N)N)NC(=O)[C@H](CC(C)C)NC(=O)[C@H](CCCNC(=N)N)NC(=O)[C@H](CCCCN)NC(=O)[C@H](CCCNC(=N)N)NC(=O)[C@H](CC(C)C)NC(=O)CN)[C@@H](C)CC)NC(=O)[C@H](CCCNC(=N)N)NC(=O)[C@H](CC(C)C)NC(=O)CN)C(=O)N[C@@H](CCCCN)C(=O)N[C@@H](CCC(=O)O)C(=O)N[C@@H](CCCCN)C(=O)O (I: H-GLRKRLRKFRNKIKEK / II: H-GLRKRLRKFRNKIKEK-OH; amide I:C-II:4)
IC50 (HepG2 [1]): 34.8 µM
IC50 at 24 h [2]: 70.7 µM
IC50 (A549 [3]): 56.2 µM
IC50 at 24 h [4]: 93.6 µM
Activity (HepG2 [5]): Active
Activity (A549 [6]): Active
Activity (L02): Non-Toxic
Activity (BEAS-2B): Non-Toxic
Activity (A549 [7]): Active
Activity (HepG2 [8]): Active

Drug uptake [9]: Active
Drug uptake [10]: Active
Drug uptake [11]: Active
Drug uptake [12]: Active
Drug uptake [13]: Active
Drug uptake [14]: Active
Drug uptake [15]: Active
Drug uptake [16]: Active
Drug uptake [17]: Active
Drug uptake [18]: Active
Drug uptake [19]: Active
Drug uptake [20]: Active
Compound: I: H-[X1]ELVVLGKLLLHHLLHHLLHHGLRKRLRKFRNKIKEK / II: H-GLRKRLRKFRNKIKEK-NH2 (amide I:C-II:4)
